Measurements published in patent publication US8049015B2 (Panmira Pharmaceuticals, LLC, priority 2008, dated 2011).

Molecular target: T1, human DP2 receptor (Homo sapiens, UniProt Q9Y5Y4)
T1 construct: expressed in transfected cells
T1 sequence (Q9Y5Y4 1-395): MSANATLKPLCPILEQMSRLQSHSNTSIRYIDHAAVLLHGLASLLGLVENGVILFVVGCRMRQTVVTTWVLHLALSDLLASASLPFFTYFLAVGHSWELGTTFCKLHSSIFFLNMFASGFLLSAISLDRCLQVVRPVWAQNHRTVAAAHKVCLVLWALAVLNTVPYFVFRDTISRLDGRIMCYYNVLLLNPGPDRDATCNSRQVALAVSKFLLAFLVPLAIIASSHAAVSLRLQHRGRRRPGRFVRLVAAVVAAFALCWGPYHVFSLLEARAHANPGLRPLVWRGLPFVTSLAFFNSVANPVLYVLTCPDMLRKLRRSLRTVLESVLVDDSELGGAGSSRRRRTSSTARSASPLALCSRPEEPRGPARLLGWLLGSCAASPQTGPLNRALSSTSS
Experiment: DP2/CRTH2 binding assay (radioligand binding with [3H]PGD2)
Conditions: [3H]PGD2 binding, membranes of HEK293 cells expressing recombinant human DP2; read-out: hDP2
Procedure: The ability of a compound to bind to the human DP2 receptor is assessed via a radioligand binding assay using [^3H]PGD2. HEK293 cells stably expressing recombinant human DP2 are resuspended in 10 mM Hepes, 7.4 containing 1 mM DTT, lysed and centrifuged at 75,000×g to pellet the membranes. The membranes are resuspended in 10 mM Hepes, 7.4 containing 1 mM DTT and 10% glycerol to approximately 5 mg protein/ml. Membranes (2-10 μg protein/well) are incubated in 96-well plates with 1 nM [^3H]PGD2 and test compound in Assay Buffer (50 mM Hepes, 10 mM MnCl2, 1 mM EDTA, plus or minus 0.2% human serum albumin, pH 7.4) for 60 minutes at room temperature. The reactions are terminated by rapid filtration through Whatman GF/C glass fibre filter plates. The filter plates were pre-soaked in 0.33% polythylenimine for 30 minutes at room temperature then washed in Wash Buffer (50 mM Hepes, 0.5 M NaCl pH 7.4) prior to harvesting. After harvesting, the filter plates are washed 3 times with 1 ml cold Wash Buffer then dried. Scintillant is then added to the plates and the radioactivity retained on the filters is determined on a Packard TopCount (Perkin Elmer). Specific binding is determined as total radioactive binding minus non-specific binding in the presence of 10 μM PGD2. IC50s were determined using GraphPad prism analysis of drug titration curves.

Row | Compound | IC50 [nM]
1 | CCN(Cc1cc(C(F)(F)F)ccc1-c1cc(CC(=O)O)c[n+]([O-])c1)C(=O)OCc1ccccc1 [Compound 15, (5-{2-[(N-Benzyloxycarbonyl-N-ethyl-amino)-methyl]-4-trifluoromethyl-phenyl}-1-oxy-pyridin-3-yl)-acetic acid] | < 300
2 | CC(=O)N(Cc1ccccc1)Cc1cc(C(F)(F)F)ccc1-c1cnc(Cl)c(CC(=O)O)c1 [Compound 20, (5-{2-[(N-Acetyl-N-benzyl-amino)-methyl]-4-trifluoromethyl-phenyl}-2-chloro-pyridin-3-yl)-acetic acid] | < 300
3 | O=C(O)Cc1cncc(-c2ccc(C(F)(F)F)cc2CN(Cc2ccccc2)C(=O)C2CC2)c1 [Compound 17, (5-{2-[(N-Benzyl-N-cyclopropanecarbonyl-amino)-methyl]-4-trifluoromethyl-phenyl}-pyridin-3-yl)-acetic acid] | < 300
4 | CCN(Cc1cc(C(F)(F)F)ccc1-c1cncc(CC(=O)O)c1)C(=O)c1cc(OC)nc(OC)n1 [Compound 30] | > 1000
5 | CCN(Cc1cc(C(F)(F)F)ccc1-c1cc(CC(=O)O)cnc1OC)C(=O)C1CC1 [Compound 10, (5-{2-[(N-Cyclopropanecarbonyl-N-ethyl-amino)-methyl]-4-trifluoromethyl-phenyl}-6-methoxy-pyridin-3-yl)-acetic acid] | < 300
6 | CC(=O)N(Cc1ccccc1)Cc1cc(C(F)(F)F)ccc1-c1cc(CC(=O)O)cnc1O [Compound 26, (5-{2-[(N-Acetyl-N-benzyl-amino)-methyl]-4-trifluoromethyl-phenyl}-6-hydroxy-pyridin-3-yl)-acetic acid] | < 300
7 | CCN(Cc1cc(C(F)(F)F)ccc1-c1cncc(CC(=O)O)c1)C(=O)OC(C)(C)C [Compound 13, (5-{2-[(N-tert-Butoxycarbonyl-N-ethyl-amino)-methyl]-4-trifluoromethyl-phenyl}-pyridin-3-yl)-acetic acid] | < 300
8 | CCN(Cc1cc(SC)ccc1-c1cncc(CC(=O)O)c1)C(=O)C1CC1 [Compound 21, (5-{2-[(N-Cyclopropanecarbonyl-N-ethyl-amino)-methyl]-4-methylsulfanyl-phenyl}-pyridin-3-yl)-acetic acid] | < 300
9 | CC(C)(C)NC(=O)c1ccc(-c2cncc(CC(=O)O)c2)c(CN(Cc2ccccc2)C(=O)C2CC2)c1 [Compound 7, (5-{2-[(N-Benzyl-N-cyclopropanecarbonyl-amino)-methyl]-4-tert-butylcarbamoyl-phenyl}-pyridin-3-yl)-acetic acid] | 300 to 1000
10 | CCN(Cc1cc(C(F)(F)F)ccc1-c1cncc(CC(=O)O)c1)C(=O)C1CC1 [Compound 8, (5-{2-[(N-Cyclopropanecarbonyl-N-ethyl-amino)-methyl]-4-trifluoromethyl-phenyl}-pyridin-3-yl)-acetic acid] | < 300
11 | CCN(Cc1cc(C(F)(F)F)ccc1-c1cncc(CC(=O)O)c1)C(=O)OCc1ccccc1 [Compound 12, (5-{2-[(N-Benzyloxycarbonyl-N-ethyl-amino)-methyl]-4-trifluoromethyl-phenyl}-pyridin-3-yl)-acetic acid] | < 300
12 | CCN(Cc1cc(C(F)(F)F)ccc1-c1cncc(CC(=O)O)c1)C(=O)COC [Compound 34, [5-(2-{[N-Ethyl-N-(2-methoxy-acetyl)-amino]-methyl}-4-trifluoromethyl-phenyl)-pyridin-3-yl]-acetic acid] | 300 to 1000
13 | CCN(Cc1cc(C(F)(F)F)ccc1-c1cncc(CC(=O)O)c1)C(=O)Cc1ccc(C)nc1 [Compound 37, {5-[2-({N-Ethyl-N-[2-(6-methyl-pyridin-3-yl)-acetyl]-amino}-methyl)-4-trifluoromethyl-phenyl]-pyridin-3-yl}-acetic acid] | < 300
14 | CC(=O)N(Cc1ccccc1)Cc1cc(C(F)(F)F)ccc1-c1cc(CC(=O)O)cnc1Cl [Compound 19, (5-{2-[(N-Acetyl-N-benzyl-amino)-methyl]-4-trifluoromethyl-phenyl}-6-chloro-pyridin-3-yl)-acetic acid] | < 300
15 | CCN(Cc1cc(C(F)(F)F)ccc1-c1cnc(Cl)c(CC(=O)O)c1)C(=O)C1CC1 [Compound 9, (2-Chloro-5-{2-[(N-cyclopropanecarbonyl-N-ethyl-amino)-methyl]-4-trifluoromethyl-phenyl}-pyridin-3-yl)-acetic acid] | 300 to 1000
16 | CCN(Cc1cc(C(F)(F)F)ccc1-c1cncc(CC(=O)O)c1)C(=O)NCc1ccccc1 [Compound 14, {5-[2-(3-Benzyl-1-ethyl-ureidomethyl)-4-trifluoromethyl-phenyl]-pyridin-3-yl}-acetic acid] | < 300
17 | O=C(O)CCn1c2c(c3ccccc31)C[C@H](NS(=O)(=O)c1ccc(F)cc1)CC2 [Ramatroban, reference compound] | 300 to 1000
18 | CCN(Cc1cc(C(F)(F)F)ccc1-c1cc(CC(=O)O)cnc1OC)C(=O)OCc1ccccc1 [Compound 40, (5-{2-[(N-Benzyloxycarbonyl-N-ethyl-amino)-methyl]-4-trifluoromethyl-phenyl}-6-methoxy-pyridin-3-yl)-acetic acid] | < 300

Continued, values first:

Row | IC50 [nM] | Compound
19 | 300 to 1000 | CCN(Cc1cc(F)ccc1-c1cncc(CC(=O)O)c1)C(=O)C1CC1 [Compound 23, (5-{2-[(N-Cyclopropanecarbonyl-N-ethyl-amino)-methyl]-4-fluoro-phenyl}-pyridin-3-yl)-acetic acid]
20 | < 300 | CCN(Cc1cc(C(F)(F)F)ccc1-c1cncc(CC(=O)O)c1)C(=O)Cc1ccccn1 [Compound 33, [5-(2-{[N-Ethyl-N-(2-pyridin-2-yl-acetyl)-amino]-methyl}-4-trifluoromethyl-phenyl)-pyridin-3-yl]-acetic acid]
21 | < 300 | CCN(Cc1cc(C(=O)O)ccc1-c1cncc(CC(=O)O)c1)C(=O)C1CC1 [Compound 2, 4-(5-Carboxymethyl-pyridin-3-yl)-3-[(N-cyclopropanecarbonyl-N-ethyl-amino)-methyl]-benzoic acid]
22 | < 300 | COc1ncc(CC(=O)O)cc1-c1ccc(C(F)(F)F)cc1CN(Cc1ccccc1)C(C)=O [Compound 28, (5-{2-[(N-Acetyl-N-benzyl-amino)-methyl]-4-trifluoromethyl-phenyl}-6-methoxy-pyridin-3-yl)-acetic acid]
23 | < 300 | CCOC(=O)N(CC)Cc1cc(C(F)(F)F)ccc1-c1cc(CC(=O)O)cnc1OC [Compound 43, (5-{2-[(N-Ethoxycarbonyl-N-ethyl-amino)-methyl]-4-trifluoromethyl-phenyl}-6-methoxy-pyridin-3-yl)-acetic acid]
24 | 300 to 1000 | CCN(Cc1cc(C(F)(F)F)ccc1-c1cncc(CC(=O)O)c1)C(=O)c1cnccn1 [Compound 29, [5-(2-{[N-Ethyl-N-(pyrazine-2-carbonyl)-amino]-methyl}-4-trifluoromethyl-phenyl)-pyridin-3-yl]-acetic acid]
25 | 300 to 1000 | CCN(Cc1cc(C(F)(F)F)ccc1-c1cc(CC(=O)O)cnc1OC)C(C)=O [Compound 41, (5-{2-[(N-Acetyl-N-ethyl-amino)-methyl]-4-trifluoromethyl-phenyl}-6-methoxy-pyridin-3-yl)-acetic acid]
26 | < 300 | CCN(Cc1cc(S)ccc1-c1cncc(CC(=O)O)c1)C(=O)C1CC1 [Compound 24, (5-{2-[(N-Cyclopropanecarbonyl-N-ethyl-amino)-methyl]-4-mercapto-phenyl}-pyridin-3-yl)-acetic acid]
27 | < 300 | CCN(Cc1cc(SC(C)(C)C)ccc1-c1cncc(CC(=O)O)c1)C(=O)C1CC1 [Compound 22, (5-{4-tert-Butylsulfanyl-2-[(N-cyclopropanecarbonyl-N-ethyl-amino)-methyl]-phenyl}-pyridin-3-yl)-acetic acid]
28 | < 300 | O=C(O)Cc1cncc(-c2ccc(-c3nn[nH]n3)cc2CN(Cc2ccccc2)C(=O)C2CC2)c1 [Compound 4, {5-[2-[(N-Benzyl-N-cyclopropanecarbonyl-amino)-methyl]-4-(2H-tetrazol-5-yl)-phenyl]-pyridin-3-yl}-acetic acid]
29 | < 300 | CCN(Cc1cc(C(F)(F)F)ccc1-c1cncc(CC(=O)O)c1)C(=O)Cc1ccccc1 [Compound 16, (5-{2-[(N-Ethyl-N-phenylacetyl-amino)-methyl]-4-trifluoromethyl-phenyl}-pyridin-3-yl)-acetic acid]
30 | < 300 | CCN(Cc1cc(C(F)(F)F)ccc1-c1cncc(CC(=O)O)c1)C(=O)CCc1ccccc1 [Compound 25, [5-(2-{[N-Ethyl-N-(3-phenyl-propionyl)-amino]-methyl}-4-trifluoromethyl-phenyl)-pyridin-3-yl]-acetic acid]
31 | 300 to 1000 | CCN(Cc1cc(C(F)(F)F)ccc1-c1cc(CC(=O)O)cnc1O)C(=O)C1CC1 [Compound 38, (5-{2-[(N-Cyclopropanecarbonyl-N-ethyl-amino)-methyl]-4-trifluoromethyl-phenyl}-6-hydroxy-pyridin-3-yl)-acetic acid]
